Here are results for 1 compound from US20180289666A1, “FLAVONOLIGNANS FOR TREATMENT OF AUTOIMMUNE INFLAMMATORY DISEASES” (Macau University of Science and Technology, priority 2017, published 2018).

Data set [1] has as its system AIA rats. Put plainly: Radiological and histopathological examination of hind paws / ankle joints of AIA rats. Type of data set: in vivo, Sprague-Dawley (SD) rats. How it is done:
Disease severity and progression were evaluated by measurements of both hind paw volumes with a plethysmometer chamber (Yiyan technology, Jinan, China) and body weight with a 0.1 g precision balance (Sartorius AG, Göttingen, Germany) every two or three days after arthritis induction. For evaluation the arthritic scoring, the lesions of four paws of each rat (i.e., the arthritic signs) were graded by two separate investigators with a semi-quantitative scale: 0 (normal), 4-8 (mild changes), 8-12 (moderate changes), and 12-16 (severe changes) (van Eden W., et. al., J. E. Coligan, Editor. 2001, John Wiley: New York. p. 1-11). Erythrocyte sedimentation rate (ESR) was determined with ICSH (International Council for Standardization in Hematology) selected method with little modifications at day 42. Briefly, 120 μl of blood sample was taken directly and put into 30 μl of 0.109 mol/L sodium citrate, mixed well, and then transferred into a 1.0 mm×100 mm capillary tube (West China Medical University, ChengDu, China). The tubes were held obliquely at an angle of […] and the erythrocyte sedimentation rate was recorded at 15 min. The cytokines levels including IL-1β, TNF-α, IL-17, IL-33, MMP-9, TIMP-1 and PGE2 in serum were measured using commercially available ELISA kits according to the manufacturers instructions. At the end of the experiments, rat knee images were measured (mean of three readings per knee, Meinaite digital calliper, ShangHai, China) using a IVIS Lumina XRMS Series (PerkinElmer, America) (Esser, R. E., et al., Arthritis Rheum, 1995, 38(1): p. 129-38).
For histopathological assessment, arthritic paws were collected on day 42 after X-ray check, fixed with 10% phosphate buffered saline (PBS) buffered formalin, and decalcified for 3 days in formic acid. Sections from paraffin-embedded tissue were stained with hematoxylin and eosin (H&E). The obtained plasma was stored in −70° C. for metabolomic studies. The relative organ weight ratios (such as liver index, spleen index, kidney index, lung index) were calculated by dividing the weight of each organ with the body weight.

Data set [2] relates to AIA rats. Put plainly: Assessment of liver abnormality and lipid profile in AIA model. Type of data set: in vivo, Sprague-Dawley (SD) rats. Here is the method: Serum ALT, AST, ALP, GGT and total bilirubin were measured by automatic biochemical analyzer (Toshiba Corporation, Tokyo, Japan). Lipids profile including TG, TC, HDL-C, LDL-C/vLDL-C and free fatty acids were measured in the serum. After animals were sacrificed, tissues of liver were fixed in 10% formalin solution, cleared in xylene, embedded in paraffin blocks from which 5 micron-thick sections were obtained. Sections were stained with H&E dye and examined for pathological changes under light microscope by a pathologist blind to the specimens.

In data set [3] the test system is key enzymes involved in lipid metabolism in liver. Briefly: Real-time PCR and Western blot of lipid metabolism enzymes in liver of AIA rats. Type of data set: in vivo, Sprague-Dawley (SD) rats. As to conditions: AIA rats liver. Here is the method: Total RNA was isolated from the frozen liver of the AIA model using TRIzol® Reagent (Life technology, USA). mRNA was purified by binding to poly(dT) magnetic beads using Dynabeads® mRNA DIRECT™ Kit (Life technology, Norway) and reverse transcribed using SuperScript® III reverse transcriptase (Invitrogen, California, USA) as described by the manufacturer. Quantitative real-time PCR was performed using SYBR Green (Sigma-Aldrich, Louis, USA) on the ViiA™ 7 Real-Time PCR System (Applied Biosystems, FosterCity, USA). Quantitative RT-PCR analysis was performed using SYBR Green reagents and ViiA™ 7 Real-Time PCR System. Gene expression levels were calculated from cycle threshold (Ct) values and normalized with control gene GAPDH.
Liver tissue homogenates of AIA and MCD animal models were lysed in RIPA buffer (50 mM pH 7.4 Tris, 150 mM NaCl, 1% Triton X-100, 1% sodium deoxycholate, 0.1% SDS, sodium orthovanadate, sodium fluoride and EDTA) containing protease inhibitor cocktails (Roche Life Science, USA). Protein concentration was determined using the BCA protein assay kit (BIO-RAD, USA). Equal amounts of total protein were resolved using SDS-PAGE and transferred onto PVDF membranes (Millipore, Darmstadt, Germany). After incubation in a blocking solution containing with 5% (w/v) skim milk (Nestle Carnation, New Zealand) in TBST buffer (10 mM tris-buffered saline and 0.1% Tween20) for 1 h at room temperature and incubated with primary antibodies overnight at 4° C. The membranes were washed three times with 1×TBST solutions and incubated with the appropriate secondary antibodies at room temperature for 45 min, and subsequently visualized with an enhanced chemiluminescence detection kit (SuperSignal™ West Pico Chemiluminescent Substrate, Thermo Scientific, USA). β-actin was used as the loading control for the experimental data analysis.
A general note: Quantitative PCR measures a nucleic acid by following its amplification.

The test system of data set [4] is AIA rats. Put plainly: Plasma metabolomics by LC-MS/MS in AIA rats. Type of data set: in vivo, Sprague-Dawley (SD) rats. How it is done: The plasma sample (200 μL) was thawed on ice for 5 min prior to sample preparation and was mixed with 200 μL of 10 mM N-ethylmaleimide (NEM) in PBS buffer solution and 1000 μL of methanol containing internal standard (I.S.) Phe-d5 in 10 ng/ml. This mixture was incubated at −20° C. for 20 min, and then centrifuged at 12000 rpm for 10 min at 4° C. The supernatant was completely dried under nitrogen flow (Pressure Blowing Concentrator, Tokyo Rikakika, Tokyo, Japan) and reconstituted with distilled water.
LC-MS/MS analysis was performed on A Waters ACQUITY UPLC coupled with a 4000 Q-TRAP mass spectrometer. Chromatographic separation was carried on a Waters X Bridge™ BEH C18 analytical column (2.5 μm, 3.0×100 mm; Waters, Torrance, Calif.) with a mobile phase composed of 0.1% formic acid water (solvent A) and methanol (solvent B) which was running in a gradient program: 0-3.0 min (0%-1% B); 3.0-10.0 min (1-3% B); 10.0-14.0 min (3-50% B); 14.0-18.0 min (50-95% B); 18.0-22.0 min (95-0% B); followed by a 3-min re-equilibration step. The injection volume was 10 μl at 4° C. and flow rate was 0.6 ml/min. Electrospray (ESI) source were used in both positive and negative ion mode. […]
The normalized data were exported and further processed by PCA and PLS-DA using a multivariate analysis package SIMCA-P software (Umea, Sweden). Model quality was evaluated based on the relevant values of R^2 and Q^2. […]

For data set [5], the system named is AIA rats. The note with it: AIA rats; MTX alone; versus vehicle-treated AIA rats.

Turning to `CN(Cc1cnc2nc(N)nc(N)c2n1)c1ccc(C(=O)N[C@@H](CCC(=O)O)C(=O)O)cc1` [MTX, methotrexate, reference compound], the “cartilage and joint destruction of the arthritic joints (radiographs)” value with AIA rats [1] (MTX, day 42) was “ameliorated”. For the same compound, in the data set with AIA rats [1] (ankle joint sections, H&E), the “infiltration of inflammatory cells, synovial hyperplasia” value is reported as “diminished”. In addition, the “histological grade of representative ankle joint sections” value in the data set with AIA rats [1] (day 42, H&E, FIG. 2C (MTX; Silybin 200 mg/kg), vehicle-treated AIA grade 2/3) is recorded as 0. Besides, in the data set with AIA rats [2] (H&E liver sections), the “histopathological assessment of liver tissue” value is “congested portal tract and mild fatty changes with lipid drop lets”. The “dyslipidemia (serum lipid profile)” value with AIA rats [2] (MTX) is on record as “successfully improved”. In the data set with AIA rats [2] (methotrexate alone, 42 days), the ALT serum level entry is listed as “significant increase” and the GGT serum level result is on record as “significant increase”. Moreover, in data set [3], the “expression of aP2 in the liver” value is “reduced”; the “mRNA and/or protein expression of LPL, CYP7A1, and SREBP1 in liver” value is listed as “greatly repressed”; the “overexpression of SREBP1” value was “not modulated”. Also, the “increased mRNA levels of hepatic lipogenesis genes (SREBP1, LXR, FXR)” value in data set [3] (real-time PCR) is “attenuated”. Moreover, the “changes of key lipogenic enzyme in both gene and protein levels” value in data set [3] (real-time PCR and Western blot) is “ameliorated changes”. Further, the “metabolic network (plasma metabolites)” value in the data set on AIA rats [4] is “effectively repair the metabolic network”. Moreover, in the data set on AIA rats [5], the “changes in arthritis score” value is “significantly (p<0.001) ameliorated” and the “changes in paw volume” value is “significantly (p<0.001) ameliorated”.
